According to US10471046B2, “Method for treating, preventing, or reducing the risk of skin infection” (Melinta Subsidiary Corp., priority 2014, dated 2019):
≈ marks a conversion by molar mass, not a printed value. Read-outs that look alike come from different tables or passages of the source.

Test system: S. aureus
Experiment: Minimum inhibitory concentrations (MICs) for S. aureus of exemplary compounds (Table 2)
Format: cell-based
Conditions: Staphylococcus aureus, read-out: MICs
Excerpt: Exemplary compounds in accordance with the invention are listed in Table 2 with their minimum inhibitory concentrations (MICs) (μg/mL) for S. aureus:
Furthermore, the antibiotic compounds can be assayed for anti-proliferative or anti-infective properties on a cellular level. For example, where the target organism is a microorganism, the activity of compounds of interest can be assayed by growing the microorganisms of interest in media either containing or lacking the compound. Growth inhibition can be indicative that the molecule could be acting as a protein synthesis inhibitor. […] For this purpose, a panel of bacterial strains can be assembled to include a variety of target pathogenic species, some containing resistance mechanisms that have been characterized. Use of such a panel of organisms permits the determination of structure-activity relationships not only in regards to potency and spectrum, but also with a view to obviating resistance mechanisms. The assays can be performed in microtiter trays according to conventional methodologies as published by The National Committee for Clinical Laboratory Standards (NCCLS) guidelines (NCCLS. M7-A5-Methods for Dilution Antimicrobial Susceptibility Tests for Bacteria That Grow Aerobically; Approved Standard-Fifth Edition. NCCLS Document M100-S12/M7 (ISBN 1-56238-394-9)).

[1] = minimum inhibitory concentrations for S. aureus

Row | Compound | MIC [1] | MIC
1 | CC(=O)NC[C@H]1CN(c2ccc(-c3ccc(Cn4nccn4)cc3)c(F)c2)C(=O)O1 [Compound 1023, N-[3-(2-Fluoro-4′-[1,2,3]triazol-2-ylmethyl-biphenyl-4-yl)-2-oxo-oxazolidin-5-(S)-ylmethyl]-acetamide] | 0.25 µg/mL (≈ 0.611 µM) | –
2 | CC(=O)NC[C@H]1CN(c2ccc(-c3ccc(CNC(=O)[C@@H]4C[C@@H](O)CN4C(=O)OC(C)(C)C)cc3)c(F)c2)C(=O)O1 [Compound 4311, 2-({4′-[5-(S)-(Acetylamino-methyl)-2-oxo-oxazolidin-3-yl]-2′-fluoro-biphenyl-4-ylmethyl}-carbamoyl)-4-(R)-hydroxy-pyrrolidine-1-(S)-carboxylic acid tert-butyl ester] | 16 µg/mL (≈ 28 µM) | –
3 | CC(=O)NC[C@H]1CN(c2ccc(-c3ccc(CNCc4c[nH]nc4-c4cccs4)cc3)c(F)c2)C(=O)O1 [Compound 4127, N-[3-(2-Fluoro-4′-{[(3-thiophen-2-yl-1H-pyrazol-4-ylmethyl)-amino]-methyl}-biphenyl-4-yl)-2-oxo-oxazolidin-5-(S)-ylmethyl]-acetamide] | 0.5 µg/mL (≈ 0.962 µM) | –
4 | CC(=O)NC[C@H]1CN(c2ccc(-c3ccc(CN4CCSCC4)cc3)c(F)c2)C(=O)O1 [Compound 1064, N-[3-(2-Fluoro-4′-thiomorpholin-4-ylmethyl-biphenyl-4-yl)-2-oxo-oxazolidin-5-(S)-ylmethyl]-acetamide] | 2 µg/mL (≈ 4.51 µM) | –
5 | CC(=O)NC[C@H]1CN(c2ccc(-c3ccc(CNCC(=O)N4CCNCC4)cc3)c(F)c2)C(=O)O1 [Compound 4314, N-(3-{2-Fluoro-4′-[(2-oxo-2-piperazin-1-yl-ethylamino)-methyl]-biphenyl-4-yl}-2-oxo-oxazolidin-5-(S)-ylmethyl)-acetamide] | 4 µg/mL (≈ 8.27 µM) | –
6 | CC(=O)NC[C@H]1CN(c2ccc(-c3ccc([C@H](O)CN(CCS(C)(=O)=O)Cc4ccccc4)cc3)c(F)c2)C(=O)O1 [Compound 4286, N-[3-(4′-{2-[Benzyl-(2-methanesulfonyl-ethyl)-amino]-1-(S)-hydroxy-ethyl}-2-fluoro-biphenyl-4-yl)-2-oxo-oxazolidin-5-(S)-ylmethyl]-acetamide] | 2 µg/mL (≈ 3.43 µM) | –
7 | CC(=O)NC[C@H]1CN(c2ccc(-c3ccc(CNCc4c[nH]c(C)n4)cc3)c(F)c2)C(=O)O1 [Compound 4165, N-[3-(2-Fluoro-4′-{[(2-methyl-1H-imidazol-4-ylmethyl)-amino]-methyl}-biphenyl-4-yl)-2-oxo-oxazolidin-5-(S)-ylmethyl]-acetamide] | 4 µg/mL (≈ 8.86 µM) | –
8 | CC(=O)NC[C@H]1CN(c2ccc(-c3ccc(CS(=O)(=O)Nc4cccnc4)cc3)c(F)c2)C(=O)O1 [Compound 2045, N-{3-[2-Fluoro-4′-(pyridin-3-ylsulfamoylmethyl)-biphenyl-4-yl]-2-oxo-oxazolidin-5-(S)-ylmethyl}-acetamide] | 2 µg/mL (≈ 4.01 µM) | –
9 | CC(=O)NC[C@H]1CN(c2ccc(-c3ccc(CNCC4CCN(C(=O)OC(C)(C)C)C4)cc3)c(F)c2)C(=O)O1 (stereo partly drawn) [Compound 4317, 3-[({4′-[5-(S)-(Acetylamino-methyl)-2-oxo-oxazolidin-3-yl]-2′-fluoro-biphenyl-4-ylmethyl}-amino)-methyl]-pyrrolidine-1-carboxylic acid tert-butyl ester] | 16 µg/mL (≈ 29.6 µM) | –
10 | CC(=O)NC[C@H]1CN(c2ccc(-c3ccc(CNC(=O)c4ccncc4)cc3)c(F)c2)C(=O)O1 [Compound 4142, N-{4′-[5-(S)-(Acetylamino-methyl)-2-oxo-oxazolidin-3-yl]-2′-fluoro-biphenyl-4-ylmethyl}-isonicotinamide] | 2 µg/mL (≈ 4.32 µM) | –
11 | CC(=O)NC[C@H]1CN(c2ccc(-c3ccc(CSc4nnc(N)[nH]4)cc3)c(F)c2)C(=O)O1 [Compound 2028, N-{3-[4′-(5-Amino-4H-[1,2,4]triazol-3-ylsulfanylmethyl)-2-fluoro-biphenyl-4-yl]-2-oxo-oxazolidin-5-(S)-ylmethyl}-acetamide] | 0.25 µg/mL (≈ 0.548 µM) | –
12 | CNc1ncnc2c1ncn2Cc1ccc(-c2ccc(N3C[C@H](CNC(C)=O)OC3=O)cc2F)cc1 [Compound 1106, N-{3-[2-Fluoro-4′-(6-methylamino-purin-9-ylmethyl)-biphenyl-4-yl]-2-oxo-oxazolidin-5-(S)-ylmethyl}-acetamide] | 1 µg/mL (≈ 2.04 µM) | –
13 | CC(=O)NC[C@H]1CN(c2ccc(-c3ccc(CSc4ncn[nH]4)cc3)c(F)c2)C(=O)O1 [Compound 2047, N-{3-[2-Fluoro-4′-(2H-[1,2,4]triazol-3-ylsulfanylmethyl)-biphenyl-4-yl]-2-oxo-oxazolidin-5-(S)-ylmethyl}-acetamide] | 0.25 µg/mL (≈ 0.566 µM) | –
14 | CC(=O)NC[C@H]1CN(c2ccc(-c3ccc(/C=N/N4CCOCC4)cc3)c(F)c2)C(=O)O1 [Compound 2056, N-{3-[2-Fluoro-4′-(morpholin-4-yliminomethyl)-biphenyl-4-yl]-2-oxo-oxazolidin-5-(S)-ylmethyl}-acetamide] | 0.25 µg/mL (≈ 0.568 µM) | –
15 | CC(=O)NC[C@H]1CN(c2ccc(-c3ccc(C(CO)NCc4csnn4)cc3)c(F)c2)C(=O)O1 (mixture of isomers) [Compound 4171, N-[3-(2-Fluoro-4′-{2-hydroxy-1-[([1,2,3]thiadiazol-4-(R/S)-ylmethyl)-amino]-ethyl}-biphenyl-4-yl)-2-oxo-oxazolidin-5-(S)-ylmethyl]-acetamide] | 4 µg/mL (≈ 8.24 µM) | –
16 | CC(=O)NC[C@H]1CN(c2ccc(-c3ccc(CN4CC(C#N)C4)cc3)c(F)c2)C(=O)O1 [Compound 1022, N-{3-[4′-(3-Cyano-azetidin-1-ylmethyl)-2-fluoro-biphenyl-4-yl]-2-oxo-oxazolidin-5-(S)-ylmethyl}-acetamide] | – | 0.25 µg/mL (≈ 0.592 µM)
17 | CC(=O)NC[C@H]1CN(c2ccc(-c3ccc(CNCc4[nH]cnc4C)cc3)c(F)c2)C(=O)O1 [Compound 4082, N-[3-(2-Fluoro-4′-{[(5-methyl-3H-imidazol-4-ylmethyl)-amino]-methyl}-biphenyl-4-yl)-2-oxo-oxazolidin-5-(S)-ylmethyl]-acetamide] | 32 µg/mL (≈ 70.9 µM) | –
18 | CC(=O)NC[C@H]1CN(c2ccc(-c3ccc(CNCc4ccncc4)cn3)c(F)c2)C(=O)O1 [Compound 4052, N-{3-[3-Fluoro-4-(5-{[(pyridin-4-ylmethyl)-amino]-methyl}-pyridin-2-yl)-phenyl]-2-oxo-oxazolidin-5-(S)-ylmethyl}-acetamide] | 64 µg/mL (≈ 142 µM) | –
19 | CC(=O)NC[C@H]1CN(c2ccc(-c3ccc(CNCc4ccc(C)o4)cc3)c(F)c2)C(=O)O1 [Compound 4081, N-[3-(2-Fluoro-4′-{[(5-methyl-furan-2-ylmethyl)-amino]-methyl}-biphenyl-4-yl)-2-oxo-oxazolidin-5-(S)-ylmethyl]-acetamide] | 2 µg/mL (≈ 4.43 µM) | –
20 | CC(=O)NC[C@H]1CN(c2ccc(-c3ccc([C@H](O)CN(C)Cc4ccccc4)cc3)c(F)c2)C(=O)O1 [Compound 4251, N-(3-{4′-[2-(Benzyl-methyl-amino)-1-(S)-hydroxy-ethyl]-2-fluoro-biphenyl-4-yl}-2-oxo-oxazolidin-5-(S)-ylmethyl)-acetamide] | 2 µg/mL (≈ 4.07 µM) | –
21 | CC(=O)NC[C@H]1CN(c2ccc(-c3ccc(CCNCc4ccncc4)cc3)c(F)c2)C(=O)O1 [Compound 4149, N-[3-(2-Fluoro-4′-{2-[(pyridin-4-ylmethyl)-amino]-ethyl}-biphenyl-4-yl)-2-oxo-oxazolidin-5-(S)-ylmethyl]-acetamide] | 1 µg/mL (≈ 2.16 µM) | –
22 | CC(=O)NC[C@H]1CN(c2ccc(-c3ccc(CNCc4ccc(Br)nc4)cc3)c(F)c2)C(=O)O1 [Compound 4181, N-[3-(4′-{[(6-Bromo-pyridin-3-ylmethyl)-amino]-methyl}-2-fluoro-biphenyl-4-yl)-2-oxo-oxazolidin-5-(S)-ylmethyl]-acetamide] | 1 µg/mL (≈ 1.9 µM) | –
23 | O=C1O[C@@H](Cn2ccnn2)CN1c1ccc(-c2ccc(Cn3ccnc3)cc2)c(F)c1 [Compound 1084, 3-(2-Fluoro-4′-imidazol-1-ylmethyl-biphenyl-4-yl)-5-(R)-[1,2,3]triazol-1-ylmethyl-oxazolidin-2-one] | 0.25 µg/mL (≈ 0.597 µM) | –
24 | CC(=O)NC[C@H]1CN(c2ccc(-c3ccc(NC(=O)NCCc4ccccn4)cc3)c(F)c2)C(=O)O1 [Compound 6003, N-(3-{2-Fluoro-4′-[3-(2-pyridin-2-yl-ethyl)-ureido]-biphenyl-4-yl}-2-oxo-oxazolidin-5-(S)-ylmethyl)-acetamide] | 2 µg/mL (≈ 4.07 µM) | –
25 | CC(=O)NC[C@H]1CN(c2ccc(-c3ccc(CNCc4ccc(-c5ccccc5)s4)cc3)c(F)c2)C(=O)O1 [Compound 4084, N-[3-(2-Fluoro-4′-{[(5-phenyl-thiophen-2-ylmethyl)-amino]-methyl}-biphenyl-4-yl)-2-oxo-oxazolidin-5-(S)-ylmethyl]-acetamide] | 128 µg/mL (≈ 242 µM) | –
26 | CC(=O)NC[C@H]1CN(c2ccc(-c3ccc(CNCc4ccc(Br)o4)cc3)c(F)c2)C(=O)O1 [Compound 4078, N-[3-(4′-{[(5-Bromo-furan-2-ylmethyl)-amino]-methyl}-2-fluoro-biphenyl-4-yl)-2-oxo-oxazolidin-5-(S)-ylmethyl]-acetamide] | 2 µg/mL (≈ 3.87 µM) | –
27 | CC(=O)NC[C@H]1CN(c2ccc(-c3ccc(COCc4ccncc4)cc3)c(F)c2)C(=O)O1 [Compound 4196, N-{3-[2-Fluoro-4′-(pyridin-4-ylmethoxymethyl)-biphenyl-4-yl]-2-oxo-oxazolidin-5-(S)-ylmethyl}-acetamide] | 1 µg/mL (≈ 2.22 µM) | –
28 | CC(=O)NC[C@H]1CN(c2ccc(-c3ccc(CNC(=O)[C@H](N)Cc4cnc[nH]4)cc3)c(F)c2)C(=O)O1 [Compound 4292, N-{4′-[5-(S)-(Acetylamino-methyl)-2-oxo-oxazolidin-3-yl]-2′-fluoro-biphenyl-4-ylmethyl}-2-(R)-amino-3-(3H-imidazol-4-yl)-propionamide] | 16 µg/mL (≈ 32.4 µM) | –
